Measured values from article PMC6496074, “The Evolution of Azole Resistance in Candida albicans Sterol 14α-Demethylase (CYP51) through Incremental Amino Acid Substitutions” (Antimicrobial Agents and Chemotherapy, 2019).
“And” between values parts separate entries of the source, which are not always exact repeats. Identical values can stand only once.

Experiments:
Assay in all cases: CYP51 reconstitution assay
Format in all cases: biochemical
CaCYP51 G307S = target: T1, CaCYP51 G307S (Candida albicans, UniProt P10613, G307S)
T1 construct: made in house; host or cells: E. coli DH5α (pCWori+)
Protocol: (§1) Azole antifungal agents were added in 2.5 μl dimethyl sulfoxide, followed by 10 min of incubation at 37°C prior to assay initiation with 4 mM β-NADPH-Na4. The samples were then shaken for 15 min at 37°C. Sterol metabolites were recovered by extraction with ethyl acetate, followed by derivatization with 0.1 ml N,O-bis(trimethylsilyl)trifluoroacetamide (BSTFA)–trimethylchlorosilane (TMCS) (99:1) and 0.3 ml anhydrous pyridine (2 h at 80°C), prior to analysis by gas chromatography-mass spectrometry (GC-MS) ([52]). IC50 determinations were performed in duplicate.

CaCYP51 D278N+G464S = target: T2, CaCYP51 D278N+G464S (Candida albicans, UniProt P10613, D278N/G464S)
T2 construct: made in house; host or cells: E. coli DH5α (pCWori+)
T2 sequence (P10613 whole entry, looked up, stated change not applied): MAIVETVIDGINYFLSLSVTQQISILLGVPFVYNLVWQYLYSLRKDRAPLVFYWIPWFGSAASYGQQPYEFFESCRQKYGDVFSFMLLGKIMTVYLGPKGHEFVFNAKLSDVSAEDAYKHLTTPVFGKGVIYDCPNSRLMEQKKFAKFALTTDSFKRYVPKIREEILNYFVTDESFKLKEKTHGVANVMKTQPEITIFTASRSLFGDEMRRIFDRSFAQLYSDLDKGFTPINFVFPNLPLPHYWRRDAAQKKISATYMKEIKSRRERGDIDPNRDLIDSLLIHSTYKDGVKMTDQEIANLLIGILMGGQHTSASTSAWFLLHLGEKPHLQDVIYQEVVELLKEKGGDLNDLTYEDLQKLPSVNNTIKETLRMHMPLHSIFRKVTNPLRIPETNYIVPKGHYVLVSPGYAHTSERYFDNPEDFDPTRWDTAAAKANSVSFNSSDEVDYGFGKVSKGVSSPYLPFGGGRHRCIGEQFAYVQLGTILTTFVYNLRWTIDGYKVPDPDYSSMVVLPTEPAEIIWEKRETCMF
Protocol: as §1

CaCYP51 G448E = target: T3, CaCYP51 G448E (Candida albicans, UniProt P10613, G448E)
T3 construct: made in house; host or cells: E. coli DH5α (pCWori+)
T3 sequence (P10613 whole entry, looked up, stated change not applied): as above
Protocol: as §1

CaCYP51 P230L = target: T4, CaCYP51 P230L (Candida albicans, UniProt P10613, P230L)
T4 construct: made in house; host or cells: E. coli DH5α (pCWori+)
T4 sequence (P10613 whole entry, looked up, stated change not applied): as above
Protocol: as §1

CaCYP51 R467K = target: T5, CaCYP51 R467K (Candida albicans, UniProt P10613, R467K)
T5 construct: made in house; host or cells: E. coli DH5α (pCWori+)
Protocol: as §1

CaCYP51 V488I = target: T6, CaCYP51 V488I (Candida albicans, UniProt P10613, V488I)
T6 construct: made in house; host or cells: E. coli DH5α (pCWori+)
Protocol: as §1

CaCYP51 G450E = target: T7, CaCYP51 G450E (Candida albicans, UniProt P10613, G450E)
T7 construct: made in house; host or cells: E. coli DH5α (pCWori+)
T7 sequence (P10613 whole entry, looked up, stated change not applied): as above
Protocol: as §1

CaCYP51 Y132H = target: T8, CaCYP51 Y132H (Candida albicans, UniProt P10613, Y132H)
T8 construct: made in house; host or cells: E. coli DH5α (pCWori+)
Protocol: as §1

CaCYP51 Wild type = target: T9, CaCYP51 Wild type (Candida albicans, UniProt P10613)
T9 construct: made in house; host or cells: E. coli DH5α (pCWori+)
Protocol: as §1

CaCYP51 V456I = target: T10, CaCYP51 V456I (Candida albicans, UniProt P10613, V456I)
T10 construct: made in house; host or cells: E. coli DH5α (pCWori+)
Protocol: as §1

CaCYP51 I471T = target: T11, CaCYP51 I471T (Candida albicans, UniProt P10613, I471T)
T11 construct: made in house; host or cells: E. coli DH5α (pCWori+)
Protocol: as §1

CaCYP51 Q474K = target: T12, CaCYP51 Q474K (Candida albicans, UniProt P10613, Q474K)
T12 construct: made in house; host or cells: E. coli DH5α (pCWori+)
Protocol: as §1

CaCYP51 S279F = target: T13, CaCYP51 S279F (Candida albicans, UniProt P10613, S279F)
T13 construct: made in house; host or cells: E. coli DH5α (pCWori+)
Protocol: as §1

CaCYP51 F126V = target: T14, CaCYP51 F126V (Candida albicans, UniProt P10613, F126V)
T14 construct: made in house; host or cells: E. coli DH5α (pCWori+)
Protocol: as §1

CaCYP51 F449Y = target: T15, CaCYP51 F449Y (Candida albicans, UniProt P10613, F449Y)
T15 construct: made in house; host or cells: E. coli DH5α (pCWori+)
Protocol: as §1

CaCYP51 Y257H = target: T16, CaCYP51 Y257H (Candida albicans, UniProt P10613, Y257H)
T16 construct: made in house; host or cells: E. coli DH5α (pCWori+)
T16 sequence (P10613 whole entry, looked up, stated change not applied): as above
Protocol: as §1

CaCYP51 S405F = target: T17, CaCYP51 S405F (Candida albicans, UniProt P10613, S405F)
T17 construct: made in house; host or cells: E. coli DH5α (pCWori+)
Protocol: as §1

CaCYP51 K143R = target: T18, CaCYP51 K143R (Candida albicans, UniProt P10613, K143R)
T18 construct: made in house; host or cells: E. coli DH5α (pCWori+)
Protocol: as §1

CaCYP51 D278N = target: T19, CaCYP51 D278N (Candida albicans, UniProt P10613, D278N)
T19 construct: made in house; host or cells: E. coli DH5α (pCWori+)
Protocol: as §1

CaCYP51 G307S+G450E = target: T20, CaCYP51 G307S+G450E (Candida albicans, UniProt P10613, G307S/G450E)
T20 construct: made in house; host or cells: E. coli DH5α (pCWori+)
T20 sequence (P10613 whole entry, looked up, stated change not applied): as above
Protocol: as §1

CaCYP51 Y447H = target: T21, CaCYP51 Y447H (Candida albicans, UniProt P10613, Y447H)
T21 construct: made in house; host or cells: E. coli DH5α (pCWori+)
Protocol: as §1

CaCYP51 Y132F = target: T22, CaCYP51 Y132F (Candida albicans, UniProt P10613, Y132F)
T22 construct: made in house; host or cells: E. coli DH5α (pCWori+)
Protocol: as §1

CaCYP51 F145L = target: T23, CaCYP51 F145L (Candida albicans, UniProt P10613, F145L)
T23 construct: made in house; host or cells: E. coli DH5α (pCWori+)
T23 sequence (P10613 whole entry, looked up, stated change not applied): as above
Protocol: as §1

CaCYP51 V437I = target: T24, CaCYP51 V437I (Candida albicans, UniProt P10613, V437I)
T24 construct: made in house; host or cells: E. coli DH5α (pCWori+)
Protocol: as §1

CaCYP51 G464S = target: T25, CaCYP51 G464S (Candida albicans, UniProt P10613, G464S)
T25 construct: made in house; host or cells: E. coli DH5α (pCWori+)
T25 sequence (P10613 whole entry, looked up, stated change not applied): as above
Protocol: as §1

CaCYP51 Y118A = target: T26, CaCYP51 Y118A (Candida albicans, UniProt P10613, Y118A); conditions: mean ± SD, duplicate
T26 construct: made in house; host or cells: E. coli DH5α (pCWori+)
Protocol: as §1

CaCYP51 Y132H+K143R = target: T27, CaCYP51 Y132H+K143R (Candida albicans, UniProt P10613, K143R/Y132H)
T27 construct: made in house; host or cells: E. coli DH5α (pCWori+)
T27 sequence (P10613 whole entry, looked up, stated change not applied): as above
Protocol: as §1

CaCYP51 Y132F+K143R = target: T28, CaCYP51 Y132F+K143R (Candida albicans, UniProt P10613, K143R/Y132F)
T28 construct: made in house; host or cells: E. coli DH5α (pCWori+)
Protocol: as §1

[1] = 0.25 h, 4 μM triazole, % of activity without triazole, read-out: Residual CYP51 activity (%) ± SD
[2] = 0.25 h, read-out: Residual CYP51 activity (%) ± SD

SMILES: OC(Cn1cncn1)(Cn1cncn1)c1ccc(F)cc1F [Fluconazole, fluconazole]
- remaining activity at 4 µM (CaCYP51 G307S; [1]): 0.95 ± 0.17%
- IC50 (CaCYP51 G307S; mean ± SD, duplicate): 526 ± 211 nM
- fold increase in IC50 over wild-type enzyme (CaCYP51 D278N+G464S): 3 fold and 3.2 fold
- remaining activity at 4 µM (CaCYP51 D278N+G464S; [1]): 18.26 ± 0.08%
- IC50 (CaCYP51 D278N+G464S; mean ± SD, duplicate): 1240 ± 64 nM
- remaining activity at 4 µM (CaCYP51 G448E; [1]): 10.5 ± 0.2%
- IC50 (CaCYP51 G448E; mean ± SD, duplicate): 796 ± 87 nM
- remaining activity at 4 µM (CaCYP51 P230L; [1]): 0.05 ± 0.03%
- IC50 (CaCYP51 P230L; mean ± SD, duplicate): 334 ± 86 nM
- remaining activity at 4 µM (CaCYP51 R467K; [1]): 3.34 ± 0.61%
- IC50 (CaCYP51 R467K; mean ± SD, duplicate): 476 ± 80 nM
- remaining activity at 4 µM (CaCYP51 V488I; [1]): 1.06 ± 0.04%
- IC50 (CaCYP51 V488I; mean ± SD, duplicate): 520 ± 57 nM
- remaining activity at 4 µM (CaCYP51 G450E; [1]): 18.9 ± 0.94%
- IC50 (CaCYP51 G450E; mean ± SD, duplicate): 1080 ± 247 nM
- remaining activity at 4 µM (CaCYP51 Y132H; [1]): 0.86 ± 0.07%
- IC50 (CaCYP51 Y132H; mean ± SD, duplicate): 220 ± 13 nM
- remaining activity at 4 µM (CaCYP51 Wild type; [2]): 0.11 ± 0.09%
- IC50 (CaCYP51 Wild type; IC50): 384 ± 19 nM
- remaining activity at 4 µM (CaCYP51 V456I; [1]): 3.68 ± 0.95%
- IC50 (CaCYP51 V456I; mean ± SD, duplicate): 483 ± 22 nM
- remaining activity at 4 µM (CaCYP51 I471T; [1]): 4.35 ± 0.33%
- IC50 (CaCYP51 I471T; mean ± SD, duplicate): 600 ± 17 nM
- remaining activity at 4 µM (CaCYP51 Q474K; [1]): 0.71 ± 0.08%
- IC50 (CaCYP51 Q474K; mean ± SD, duplicate): 358 ± 8 nM
- remaining activity at 4 µM (CaCYP51 S279F; [1]): 18 ± 1.67%
- IC50 (CaCYP51 S279F; mean ± SD, duplicate): 1050 ± 325 nM
- remaining activity at 4 µM (CaCYP51 F126V; [1]): 0.09 ± 0.06%
- IC50 (CaCYP51 F126V; mean ± SD, duplicate): 278 ± 27 nM
- remaining activity at 4 µM (CaCYP51 F449Y; [1]): 0.76 ± 0.08%
- IC50 (CaCYP51 F449Y; mean ± SD, duplicate): 245 ± 28 nM
- remaining activity at 4 µM (CaCYP51 Y257H; [1]): 3.96 ± 0.18%
- IC50 (CaCYP51 Y257H; mean ± SD, duplicate): 512 ± 47 nM
- remaining activity at 4 µM (CaCYP51 S405F; [1]): 11.6 ± 1.41%
- IC50 (CaCYP51 S405F; mean ± SD, duplicate): 820 ± 42 nM
- remaining activity at 4 µM (CaCYP51 K143R; [1]): 28.1 ± 2.04%
- IC50 (CaCYP51 K143R; mean ± SD, duplicate): 1100 ± 313 nM
- remaining activity at 4 µM (CaCYP51 D278N; [1]): 7.59 ± 0.58%
- IC50 (CaCYP51 D278N; mean ± SD, duplicate): 838 ± 27 nM
- fold increase in IC50 over wild-type enzyme (CaCYP51 G307S+G450E): 13 fold
- remaining activity at 4 µM (CaCYP51 G307S+G450E; [1]): 56.8 ± 2.3%
- IC50 (CaCYP51 G307S+G450E; mean ± SD, duplicate): 4980 ± 54 nM
- remaining activity at 4 µM (CaCYP51 Y447H; [1]): 4.34 ± 0.51%
- IC50 (CaCYP51 Y447H; mean ± SD, duplicate): 483 ± 18 nM
- remaining activity at 4 µM (CaCYP51 Y132F; [1]): 7.05 ± 0.27%
- IC50 (CaCYP51 Y132F; mean ± SD, duplicate): 606 ± 66 nM
- remaining activity at 4 µM (CaCYP51 F145L; [1]): 6.71 ± 0.15%
- IC50 (CaCYP51 F145L; mean ± SD, duplicate): 450 ± 83 nM
- remaining activity at 4 µM (CaCYP51 V437I; [1]): 0.22 ± 0.06%
- IC50 (CaCYP51 V437I; mean ± SD, duplicate): 281 ± 4 nM
- remaining activity at 4 µM (CaCYP51 G464S; [1]): 3.05 ± 0.17%
- IC50 (CaCYP51 G464S; mean ± SD, duplicate): 455 ± 47 nM
- IC50 (CaCYP51 Y118A): 194 ± 10 nM
- fold increase in IC50 over wild-type enzyme (CaCYP51 Y132H+K143R): 22 fold and 22.1 fold
- remaining activity at 4 µM (CaCYP51 Y132H+K143R; [1]): 68.8 ± 5.68%
- IC50 (CaCYP51 Y132H+K143R; mean ± SD, duplicate): 8470 ± 1270 nM
- IC50 (CaCYP51 Y132F+K143R): 5860 ± 524 nM
- remaining activity at 4 µM (CaCYP51 Y132F+K143R; [2]): 62 ± 1.21%
